From patent US8318736B2, “HIV inhibiting 5,6-substituted pyrimidines” (Janssen R&D Ireland, priority 2006, dated 2012)

Tests used:
Experiment in all cases: microbe, parasite or virus in culture
[1] = biological target: HIV strain MDR (L100I, K103N, Y181C, E138G, V1791, L2214F, V278V/I and A327A/V in HIV reverse transcriptase); assay type: cell-based, HIV-1; conditions: MDR strain; MT4 LTR-EGFP cells
Text: (§1) Image analysis allowed very sensitive detection of viral infection.
“MDR” refers to a strain that contains mutations L100I, K103N, Y181C, E138G, V1791, L2214F, V278V/I and A327A/V in HIV reverse transcriptase.

HIV strain L100I + K103N = assay type: cell-based, HIV-1; conditions: L100I + K103N strain; MT4 LTR-EGFP cells
Text: as §1

[2] = system: HIV strain IIIB (wild type); conditions: for pSI (IIIB) (-log SI; SI = ratio of CC50 to EC50): strain IIIB, CC50 in mock-infected MT4 CMV-EGFP cells; for IIIB pEC50 (-log EC50): wild type HIV strain IIIB, MT4 LTR-EGFP cells, three days after infection
Protocol: Compounds of the invention were tested for their potency against wild type virus and clinically isolated HIV strains harboring one or more mutations associated with resistance to reverse transcriptase inhibitors. Antiviral activity was evaluated using a cellular assay performed according to the following procedure.
The human T-cell line MT4 was engineered with Green Fluorescent Protein (GFP) and a HIV-specific promoter, HIV-1 long terminal repeat (LTR). This cell line, designated MT4 LTR-EGFP, can be used for the in vitro evaluation of anti-HIV activity of investigational compounds. In HIV-1 infected cells, the Tat protein is produced, which upregulates the LTR promotor and eventually leads to stimulation of the GFP reporter production, allowing to measure ongoing HIV-infection fluorometrically.
Analogously, MT4 cells were engineered with GFP and the constitutional cytomegalovirus (CMV) promotor. This cell line was designated MT4 CMV-EGFP, and can be used for the in vitro evaluation of cytotoxicity of investigational compounds. […] Cytotoxic investigational compounds reduce GFP levels of mock-infected MT4 CMV-EGFP cells.
The ratio of CC50 to EC50 is defined as the selectivity index (SI) and is an indication of the selectivity of the anti-HIV activity of the inhibitor. The ultimate monitoring of HIV-1 infection and cytotoxicity was done using a scanning microscope. […] Measurements were done before cell necrosis, which usually takes place about five days after infection, in particular measurements were performed three days after infection.
The columns IIIB, L100I, etc. in the table list the pEC50 (−log EC50) values against various strains IIIB, L100I, etc.; pSI lists the −log SI values.
Strain IIIB is wild type HIV strain.

SMILES | MDR pEC50 (-log EC50) [1] | L100I + K103N pEC50 (-log EC50) (HIV strain L100I + K103N) | pSI (IIIB) (-log SI; SI = ratio of CC50 to EC50) [2] | IIIB pEC50 (-log EC50) [2]
COCc1nc(Nc2ccc(C#N)cc2)nc(Nc2c(C)cc(C=CC#N)cc2C)c1C(=O)NCc1cccnc1 (mixture of isomers) [Compound 8] | 7.07 | 7.57 | 3.13 | 8.54
COCc1nc(Nc2ccc(C#N)cc2)nc(Nc2c(C)cc(C=CC#N)cc2C)c1C(=O)NCC1CCCO1 (mixture of isomers) [Compound 9] | 6.45 | 7.26 | 3.55 | 8.28
COCCNC(=O)c1c(COC)nc(Nc2ccc(C#N)cc2)nc1Nc1c(C)cc(C=CC#N)cc1C (mixture of isomers) [Compound 10] | 7.30 | 8.10 | 3.44 | 8.46
COCc1nc(Nc2ccc(C#N)cc2)nc(Nc2c(C)cc(C=CC#N)cc2C)c1C(=O)NCc1ccncc1 (mixture of isomers) [Compound 11] | 7.24 | 7.43 | 3.59 | 8.47
COCc1nc(Nc2ccc(C#N)cc2)nc(Nc2c(C)cc(C=CC#N)cc2C)c1C(=O)NCCNC(C)=O (mixture of isomers) [Compound 12] | 6.68 | 7.42 | 3.59 | 8.25
COCc1nc(Nc2ccc(C#N)cc2)nc(Nc2c(C)cc(C=CC#N)cc2C)c1C(=O)NCCN1CCOCC1 (mixture of isomers) [Compound 14] | 6.42 | 6.67 | 3.70 | 8.41
COCc1nc(Nc2ccc(C#N)cc2)nc(Nc2c(C)cc(C=CC#N)cc2C)c1C(=O)NCCC#N (mixture of isomers) [Compound 16] | 7.03 | 7.55 | 4.22 | 8.90
COCc1nc(Nc2ccc(C#N)cc2)nc(Nc2c(C)cc(C=CC#N)cc2C)c1C(=O)NCc1cccs1 (mixture of isomers) [Compound 18] | 6.42 | 6.97 | >3.63 | 8.23
COCc1nc(Nc2ccc(C#N)cc2)nc(Nc2c(C)cc(C=CC#N)cc2C)c1C(=O)N(C)CCN(C)C (mixture of isomers) [Compound 21] | 5.44 | 6.31 | 2.53 | 7.49
COCc1nc(Nc2ccc(C#N)cc2)nc(Nc2c(C)cc(C=CC#N)cc2C)c1C(=O)N1CCCC(C(N)=O)C1 (mixture of isomers) [Compound 22] | 5.64 | 6.22 | >2.66 | 7.27
COCc1nc(Nc2ccc(C#N)cc2)nc(Nc2c(C)cc(C=CC#N)cc2C)c1C(=O)N(C)OC (mixture of isomers) [Compound 25] | 6.27 | 7.19 | 4.02 | 8.72
COCc1nc(Nc2ccc(C#N)cc2)nc(Nc2c(C)cc(C=CC#N)cc2C)c1C(=O)N1CCC(O)CC1 (mixture of isomers) [Compound 27] | 5.21 | 5.79 | >3.61 | 8.21
COCc1nc(Nc2ccc(C#N)cc2)nc(Nc2c(C)cc(C=CC#N)cc2C)c1C(=O)NCCc1ccc(S(N)(=O)=O)cc1 (mixture of isomers) [Compound 29] | 6.72 | 7.01 | >3.23 | 7.83
